Measured values reported in ChEMBL document CHEMBL3046932, “Synthesis, 5-HT1A and 5-HT2A receptor affinity and QSAR study of 1-benzhydryl-piperazine derivatives with xanthine moiety at N4” (Med Chem Res, 2012).

Legend:
[1] = target: 5-hydroxytryptamine receptor 2A (Rattus norvegicus, UniProt P14842); assay: Displacement of [3H]Ketanserin from 5-HT2A receptor in rat cortex
[2] = target: T1, 5-hydroxytryptamine receptor 1A (Rattus norvegicus, UniProt P19327); assay: Displacement of [3H]8-OH-DPAT from 5-HT1A receptor in Rattus norvegicus (rat) hippocampus
T1 sequence (P19327 whole entry): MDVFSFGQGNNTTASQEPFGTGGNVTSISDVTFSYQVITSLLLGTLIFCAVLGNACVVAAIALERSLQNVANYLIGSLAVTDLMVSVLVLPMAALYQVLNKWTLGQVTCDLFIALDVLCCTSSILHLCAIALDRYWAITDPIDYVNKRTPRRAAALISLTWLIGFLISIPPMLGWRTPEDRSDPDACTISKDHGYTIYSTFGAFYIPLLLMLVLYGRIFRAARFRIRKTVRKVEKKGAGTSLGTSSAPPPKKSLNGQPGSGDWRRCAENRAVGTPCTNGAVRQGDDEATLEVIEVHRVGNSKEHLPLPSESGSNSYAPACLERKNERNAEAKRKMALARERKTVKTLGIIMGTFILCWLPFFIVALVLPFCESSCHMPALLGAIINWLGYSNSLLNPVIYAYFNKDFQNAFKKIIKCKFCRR

[3] = target: T2, 5-hydroxytryptamine receptor 1A (Homo sapiens, UniProt P08908); assay: Binding affinity to 5-HT1A (unknown origin)
T2 sequence (P08908 whole entry): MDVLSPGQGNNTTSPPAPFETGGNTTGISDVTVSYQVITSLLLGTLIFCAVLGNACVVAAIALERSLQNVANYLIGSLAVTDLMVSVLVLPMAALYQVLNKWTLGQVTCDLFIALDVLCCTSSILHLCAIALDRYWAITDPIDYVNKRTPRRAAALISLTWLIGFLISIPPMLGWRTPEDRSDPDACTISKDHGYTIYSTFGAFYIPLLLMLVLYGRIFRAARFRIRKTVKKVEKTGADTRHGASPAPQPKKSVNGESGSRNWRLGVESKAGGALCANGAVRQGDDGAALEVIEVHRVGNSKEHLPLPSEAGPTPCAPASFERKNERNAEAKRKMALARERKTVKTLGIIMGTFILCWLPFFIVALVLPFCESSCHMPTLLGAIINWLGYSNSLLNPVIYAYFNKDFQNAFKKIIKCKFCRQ

[4] = target: T3, 5-hydroxytryptamine receptor 2A (Homo sapiens, UniProt P28223); assay: Binding affinity to 5-HT2A (unknown origin)
T3 sequence (P28223 whole entry): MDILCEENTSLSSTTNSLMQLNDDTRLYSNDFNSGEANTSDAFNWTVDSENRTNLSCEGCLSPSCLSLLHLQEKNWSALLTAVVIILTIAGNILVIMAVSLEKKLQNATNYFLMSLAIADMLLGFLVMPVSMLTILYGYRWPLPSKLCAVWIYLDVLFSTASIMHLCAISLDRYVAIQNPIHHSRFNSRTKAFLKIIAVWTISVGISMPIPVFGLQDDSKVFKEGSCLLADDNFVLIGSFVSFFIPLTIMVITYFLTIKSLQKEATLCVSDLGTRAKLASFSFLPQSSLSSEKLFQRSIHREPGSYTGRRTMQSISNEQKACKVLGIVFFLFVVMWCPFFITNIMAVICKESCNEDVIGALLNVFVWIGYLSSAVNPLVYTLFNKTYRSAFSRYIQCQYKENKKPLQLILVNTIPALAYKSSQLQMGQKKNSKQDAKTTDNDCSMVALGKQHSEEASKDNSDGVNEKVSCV

[5] = Selectivity index, ratio of Ki for rat 5-HT1A to Ki for 5-HT2A (unknown origin)
[6] = target: T3, 5-hydroxytryptamine receptor 2A; assay: Displacement of [3H]Ketanserin from 5-HT2A receptor (unknown origin)

Sequence of 5-hydroxytryptamine receptor 2A (Rattus norvegicus, UniProt P14842) (P14842 whole entry): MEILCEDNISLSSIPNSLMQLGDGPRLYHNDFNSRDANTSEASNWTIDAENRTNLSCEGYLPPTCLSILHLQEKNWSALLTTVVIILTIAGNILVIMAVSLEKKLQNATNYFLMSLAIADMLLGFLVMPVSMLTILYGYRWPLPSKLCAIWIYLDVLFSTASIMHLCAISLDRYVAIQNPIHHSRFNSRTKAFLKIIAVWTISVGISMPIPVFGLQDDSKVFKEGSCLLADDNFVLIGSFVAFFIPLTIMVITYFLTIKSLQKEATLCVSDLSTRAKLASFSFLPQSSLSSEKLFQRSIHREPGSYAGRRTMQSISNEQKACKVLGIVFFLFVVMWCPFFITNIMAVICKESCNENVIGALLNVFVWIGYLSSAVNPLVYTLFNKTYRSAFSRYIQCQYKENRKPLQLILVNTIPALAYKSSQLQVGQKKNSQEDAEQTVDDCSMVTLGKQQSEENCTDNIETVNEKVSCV

Row | SMILES | Ki [1] [nM] | Ki ([2]; read-out: pKi (converted)) [nM] | Ki [3] [nM] | Ki [4] [nM] | other results
1 | Cn1c(=O)c2c(nc3n(CCCCN4CCN(c5cccc(Cl)c5)CC4)c(=O)ccn23)n(C)c1=O | 153 | 8.79 | – | – | –
2 | Cn1c(=O)c2c(nc3n2CCC(=O)N3CCCN2CCN(c3cccc(Cl)c3)CC2)n(C)c1=O | – | – | 42.9 | 182 | –
3 | COc1ccccc1N1CCN(CCCN2CCCCn3c2nc2c3c(=O)n(C)c(=O)n2C)CC1 | – | – | 17.2 | 562 | –
4 | Cn1c(=O)c2c(nc3n2CCCN3CCCN2CCN(c3cccc(Cl)c3)CC2)n(C)c1=O | – | – | 25.7 | 126 | –
5 | Cn1c(=O)c2c(nc3n2CCCC(=O)N3CCCN2CCN(c3cccc(Cl)c3)CC2)n(C)c1=O | – | – | 60.3 | 359 | –
6 | Cn1c(=O)c2c(nc(NCCCN3CCN(C(c4ccccc4)c4ccccc4)CC3)n2C)n(C)c1=O | – | – | – | – | Ki ([2]; read-out: Ki): 1570 nM; Ratio Ki [5]: 5.1; Ki [6]: 308 nM
7 | COc1ccccc1N1CCN(CCCCn2c(=O)ccn3c4c(=O)n(C)c(=O)n(C)c4nc23)CC1 | 1070 | 0.5 | – | – | –
8 | COc1ccccc1N1CCN(CCCN2C(=O)CCCn3c2nc2c3c(=O)n(C)c(=O)n2C)CC1 | – | – | 168 | 5010 | –
9 | Cn1c(=O)c2c(nc3n2CCCC(=O)N3CCCN2CCN(c3ncccn3)CC2)n(C)c1=O | – | – | 474 | 38800 | –
10 | Cn1c(=O)c2c(nc3n2CCC(=O)N3CCCN2CCN(c3ncccn3)CC2)n(C)c1=O | – | – | 42 | 28000 | –
11 | Cn1c(=O)c2c(nc3n2CCCCN3CCCN2CCN(c3cccc(Cl)c3)CC2)n(C)c1=O | – | – | 26.7 | 330 | –
12 | Cn1cnc2c1c(=O)n(CCCN1CCN(C(c3ccccc3)c3ccccc3)CC1)c(=O)n2C | – | – | – | – | Ki ([2]; read-out: Ki): 1990 nM; Ratio Ki [5]: 33.9; Ki [6]: 58.6 nM
13 | Cn1c(=O)c2c(nc3n2CCCN3CCCN2CCN(c3ncccn3)CC2)n(C)c1=O | – | – | 36 | 8150 | –
14 | Cn1c(=O)c2c(nc(N3CCN(C(c4ccccc4)c4ccccc4)CC3)n2C)n(C)c1=O | – | – | – | – | Ki ([2]; read-out: Ki): 10800 nM; Ratio Ki [5]: 0.5; Ki [6]: 22500 nM

More lines, main results first:

Row | Ki [1] [nM] | Ki ([2]; read-out: pKi (converted)) [nM] | Ki [3] [nM] | Ki [4] [nM] | SMILES | other results
15 | 1990 | 21.5 | – | – | Cn1c(=O)c2c(nc3n(CCCCN4CCN(c5ccccc5)CC4)c(=O)ccn23)n(C)c1=O | –
16 | 449 | 220 | 592 | 1010 | CCOC(=O)Cn1c(NCCCN2CCN(c3ccccc3)CC2)nc2c1c(=O)n(C)c(=O)n2C | –
17 | – | – | 2.1 | 243 | Cn1c(=O)c2c(nc3n2CCCN3CCCCN2CCN(c3ccccc3)CC2)n(C)c1=O | –
18 | 346 | 10 | – | – | Cn1c(=O)c2c(nc(NCCCN3CCN(c4cccc(Cl)c4)CC3)n2CCCc2ccccc2)n(C)c1=O | –
19 | 115 | 1010 | – | – | CC(c1ccccc1)n1c(NCCCN2CCN(c3ccccc3)CC2)nc2c1c(=O)n(C)c(=O)n2C (centres undefined) | –
20 | 445 | 50 | – | – | Cn1c(=O)c2c(nc(NCCCN3CCN(c4ccccc4)CC3)n2CCCc2ccccc2)n(C)c1=O | –
21 | – | – | 25 | 4680 | Cn1c(=O)c2c(nc3n(CCCN4CCN(c5ccccc5)CC4)c(=O)ccn23)n(C)c1=O | –
22 | – | – | 16 | 422 | Cn1c(=O)c2c(nc3n2CCCN3CCCN2CCN(c3ccccc3)CC2)n(C)c1=O | –
23 | – | – | 385 | 197 | Cn1c(=O)c2c(nc(NCCCN3CCN(c4ccccc4)CC3)n2C)n(C)c1=O | –
24 | – | – | 31 | 258 | Cn1c(=O)c2c(nc3n2CCCCN3CCCN2CCN(c3ccccc3)CC2)n(C)c1=O | –
25 | 304 | 8 | – | – | COc1ccccc1N1CCN(CCCNc2nc3c(c(=O)n(C)c(=O)n3C)n2CCCc2ccccc2)CC1 | –
26 | 550 | 48 | – | – | COc1ccccc1N1CCN(CCCNc2nc3c(c(=O)n(C)c(=O)n3C)n2Cc2ccccc2)CC1 | –
27 | – | – | 100 | 614 | CCCCn1c(NCCCN2CCN(c3ccccc3)CC2)nc2c1c(=O)n(C)c(=O)n2C | –
28 | – | – | 32.8 | 1080 | Cn1c(=O)c2c(nc3n(CCCN4CCN(c5cccc(Cl)c5)CC4)c(=O)ccn23)n(C)c1=O | –
29 | – | – | 2.8 | 486 | COc1ccccc1N1CCN(CCCN2CCCn3c2nc2c3c(=O)n(C)c(=O)n2C)CC1 | –
30 | – | – | 10.4 | 3880 | COc1ccccc1N1CCN(CCCn2c(=O)ccn3c4c(=O)n(C)c(=O)n(C)c4nc23)CC1 | –
31 | 119 | 210 | – | – | Cn1c(=O)c2c(nc(NCCCN3CCN(c4cccc(Cl)c4)CC3)n2CCc2ccccc2)n(C)c1=O | –
32 | – | – | 21.6 | 4220 | COc1ccccc1N1CCN(CCCN2C(=O)CCn3c2nc2c3c(=O)n(C)c(=O)n2C)CC1 | –
